Tests used:
[1] = tested on: VZV gE; test: Serum VZV gE-binding IgG levels (LUMINEX) in LAV-experienced C57BL/6 mice; type: in vivo; conditions: for Day 35 (GMC), serum gE-binding IgG: C57BL/6 mice, LAV SQ Day 0, Day 35 prior to immunization; for Day 63 (GMC), serum gE-binding IgG / Day 76 (GMC), serum gE-binding IgG: LAV-experienced C57BL/6 mice; for Day 63 (GMC), serum gE-binding IgG: Day 63 (1 month post dose 1); for Day 76 (GMC), serum gE-binding IgG: Day 76 (13 days post dose 2/boost)
Procedure: Serum IgG levels were determined for each mouse sample using the LUMINEX® platform. Briefly, diluted sera were incubated in the dark in the presence of blocked, recombinant gE protein-bound single-plex microspheres (MAGPLEX® Microspheres, region 79) for 20±4 hours at 2-8° C., 300 rpm. A secondary antibody solution (R-phycoerythrin Conjugated AffiniPure F(ab)′2 Fragment Goat Anti-Mouse IgG F(ab)′2 Fragment Specific) was prepared at 1:250 in LXA-16 buffer. Plates were washed three times in LXA-20 (EIA-7), and secondary antibody was applied to each well of the assay plate. Plates were covered with aluminum sealers and incubated for 2 hours±15 minutes at 25° C., 300 rpm. Plates were washed three times with LXA-20 (EIA-7) buffer, and 100 ul LXA-20 was applied to each well. Plates were covered with aluminum sealers and incubated at 25° C., 300 rpm for a minimum of 4 minutes, or up to 2 hours. Plates were analyzed on a BIO-PLEX® Reader. IgG titers for Day, 28, 34 and 42 are show in Table 10 and FIGS. 17-19.
(§1) VZV RNA-LNP vaccines were tested for their ability to induce IgG and T cell responses in C57BL/6 mice. 15 mice per group were immunized in accordance with the schedule and specification in Table 11. Briefly, 10 or 15 mice per group were primed subcutaneously (SQ) on Day 0 with a live-attenuated varicella (LAV) vaccine (VARIVAX®, Merck) using a full human dose per mouse (1350 pfu), immunized intramuscularly (IM) on Day 35 day and boosted on Day 63. The “infection” with a LAV vaccine mimics exposure to VZV that humans receive when infected with VZV as children and develop chickenpox.
(§2) Mice immunized with SHINGRIX® received 1, 2.5, or 5 μg, corresponding to 1/50, 1/20, and 1/10 of the human clinical dose, respectively; mice immunized with gE_WT CO2 received 0.5 or 1 μg VZV RNA-LNP; mice immunized with ms5 CO1 received 0.5 or 1 ug VZV RNA-LNP; mice immunized with ms6 CO2 received 0.5 or 1 ug VZV RNA-LNP; and mice immunized with lyophilized gE_WT CO2 received 0.5 or 1 ug VZV RNA-LNP. Saline was administered on Day 35 and 63 to a negative control group. Sera was collected from mice on Day 35, 63 and 76 for characterization of VZV gE-binding IgG levels (LUMINEX® analyses). Spleens were harvested on Day 48 (13 days post dose 1 for selected groups) and Day 76 for cellular analysis (T cell and B cell responses).
Serum IgG levels were determined for each mouse sample using the LUMINEX® platform (described herein). IgG titers for Day 35, 63 (1 month post dose 1) and 76 (13 days pose dose 2) are show in Table 12 and FIGS. 22-24. Each data point in the figures is a result from an individual animal; each horizontal lines represents the geometric mean IgG concentration (μg/ml) and whiskers represent the 95% confidence interval.

[2] = tested on: VZV gE; test: ICS assay of gE peptide-stimulated splenocytes from LAV-experienced C57BL/6 mice; type: in vivo; conditions: for IFN-γ+ CD4+ T cell: percentage within CD4+ T cells; for IFN-γ+ CD8+ T cell: percentage within CD8+ T cells; for gE-specific IFN-γ+ CD8+ T cell response induced or not: FIG. 26C; for gE-specific IFN-γ+ CD8+ T-cell response, increase after second/boost dose: FIG. 27B
Description: Splenocytes were harvested from Balb/c mice on Day 34, (34 days after immunization, 6 days after boost) to assess gE-specific T cell responses induced. An Intracellular Cytokine Staining (ICS) assay was used to detect the presence of cytokines within CD4^+ or CD8^+ T cells following antigen peptide stimulation. ICS assay can detect multiple cytokines, including IFN-γ, produced in both CD4^+ and CD8^+ T cells following antigen peptide stimulation. During the ex vivo stimulation of splenocytes, reagents to block protein secretion are added to retain the synthesized cytokine to allow their detection by intracellular staining. Following stimulation, cells are stained for surface and intracellular markers to identify T cell types (CD3^+ cells for CD4 and CD8 T cells), activation markers (CD154/CD40L) and cytokines. CD4^+ T cells expressing IFN-γ, IL-2, TNFα and CD40L, and CD8^+ T cells expressing IFN-γ were assessed to evaluate gE-specific T cells.
2×10^6 splenocytes were stimulated with a 2 μg/mL gE peptide pool mix, a mix of 10 ng/ml phorbol myristate acetate (PMA) and 1 μg/mL ionomycin (positive control), or DMSO (negative control). BD GOLGISTOP™ and BD GOLGIPLUG™ were added to block protein secretion. Following incubation for 6 hours at 37° C., cells were stained for viability (10 min at 25° C.) and extracellular markers with directly labelled antibodies (20 min at 25° C.). Cells were fixed and permeabilized with BD CYTOFIX/CYTOPERM™ solution. Intracellular staining for cytokines (IFN-γ, IL-2, TNFα) and activation markers (CD154/CD40L) was performed in BD CYTOFIX/CYTOPERM™ solution (30 min at 25° C.). Cells were washed, resuspended in 2% FBS/PBS buffer and acquired on an LSRFORTESSA™. Data were analyzed by FlowJo 10.7.1. Results shown are background (media-DMSO) subtracted.
as §1, §2
Vaccine-induced T cell response was measured following ex vivo stimulation of splenocytes with gE peptide pool (2 μg/mL of each peptide) by ELISpot and Intracellular Cytokine Staining (ICS) assay (described herein). For ELISpot, the cytokine IFN-γ secreted by activated T cells were captured by an anti-IFN-γ antibody coated onto the polyvinylidene fluoride (PVDF) membrane of the well bottom on a microplate. The captured IFN-γ was developed into a spot by another non-competing biotinylated anti-IFN-γ secondary antibody followed by an enzymatic color reaction using streptavidin-alkaline phosphatase (ALP) conjugate and the substrate solution, nitro-blue tetrazolium and 5-bromo-4-chloro-3′-indolyphosphate (BCIP/NBT-plus) that yielded a dark purple precipitate or spot. […]

[3] = Day 48 (13 days post dose 1), 1 μg IM Day 35
[4] = Day 76 (13 days post dose 2/boost), 1 μg IM Days 35 and 63
[5] = Day 76 (13 days post dose 2/boost)

## ms5 CO1: modRNA construct, ORF SEQ ID NO: 153, VZV gE with deletion of aa 582-623
[1]; 0.5 μg group
  Day 35 (GMC), serum gE-binding IgG: 0.11 µg/mL
[1]; 1 μg group
  Day 35 (GMC), serum gE-binding IgG: 0.14 µg/mL
[1]; 0.5 μg IM Day 35
  Day 63 (GMC), serum gE-binding IgG: 41 µg/mL
[1]; 0.5 μg IM Days 35 and 63
  Day 76 (GMC), serum gE-binding IgG: 556 µg/mL
[1]; 1 μg IM Day 35
  Day 63 (GMC), serum gE-binding IgG: 76 µg/mL
[1]; 1 μg IM Days 35 and 63
  Day 76 (GMC), serum gE-binding IgG: 530 µg/mL
[2]; [3]
  IFN-γ+ CD4+ T cell: 0.47%
  IFN-γ+ CD8+ T cell: 0.05%
[2]; Day 48 (13 days post dose 1)
  gE-specific IFN-γ+ CD8+ T cell response induced or not: induced
[2]; [4]
  IFN-γ+ CD4+ T cell: 0.48%
  IFN-γ+ CD8+ T cell: 0.28%
[2]; [5]
  gE-specific IFN-γ+ CD8+ T-cell response, increase after second/boost dose: robust increase

## ms6 CO2: modRNA construct, ORF SEQ ID NO: 157, VZV gE with deletion of aa 539-623, secreted
[1]; 0.5 μg group
  Day 35 (GMC), serum gE-binding IgG: 0.28 µg/mL
[1]; 1 μg group
  Day 35 (GMC), serum gE-binding IgG: 0.19 µg/mL
[1]; 0.5 μg IM Day 35
  Day 63 (GMC), serum gE-binding IgG: 50 µg/mL
[1]; 0.5 μg IM Days 35 and 63
  Day 76 (GMC), serum gE-binding IgG: 464 µg/mL
[1]; 1 μg IM Day 35
  Day 63 (GMC), serum gE-binding IgG: 58 µg/mL
[1]; 1 μg IM Days 35 and 63
  Day 76 (GMC), serum gE-binding IgG: 723 µg/mL
[2]; [3]
  IFN-γ+ CD4+ T cell: 0.09%
  IFN-γ+ CD8+ T cell: 0.16%
[2]; Day 48 (13 days post dose 1)
  gE-specific IFN-γ+ CD8+ T cell response induced or not: induced
[2]; [4]
  IFN-γ+ CD4+ T cell: 0.50%
  IFN-γ+ CD8+ T cell: 0.21%
[2]; [5]
  gE-specific IFN-γ+ CD8+ T-cell response, increase after second/boost dose: robust increase

Source: patent publication US20230233671A1, “RNA MOLECULES” (Pfizer Inc., priority 2021, published 2023)
